Results from the NIST ThermoML archive (doi:10.1016/j.jct.2004.07.015).
Numbers after ± are expanded uncertainties.

Tests used:
[1] = 101.33 kPa, Liquid
[2] = xn = mol fraction of the nth substance listed; settings: 101.3 kPa, Liquid

CC(C)(C)O [2-methylpropan-2-ol]
[1]
Settings	mass density [kg/m3]	speed of sound [m/s]
298.15 K	780.86 ± 0.51	1122.8 ± 1.3
313.15 K	765.16 ± 0.54	1057.4 ± 1.2

C1COCO1 [1,3-dioxolane] + CC(C)CO
[2]
Settings	mass density, 298.15 K [kg/m3]	mass density, 313.15 K [kg/m3]	speed of sound, 298.15 K [m/s]	speed of sound, 313.15 K [m/s]
x1 = 0.0434	–	793.86 ± 0.31	–	1140.5 ± 1.3
x1 = 0.0675	810.83 ± 0.3	–	1193.2 ± 1.3	–
x1 = 0.0922	–	802.94 ± 0.31	–	1143.6 ± 1.3
x1 = 0.0932	815.89 ± 0.31	–	1195.3 ± 1.4	–
x1 = 0.1938	–	822.73 ± 0.32	–	1151.2 ± 1.3
x1 = 0.2005	837.99 ± 0.32	–	1205.1 ± 1.4	–
x1 = 0.2946	858.48 ± 0.33	843.76 ± 0.33	1214.8 ± 1.4	1159.9 ± 1.4
x1 = 0.395	881.68 ± 0.35	–	1226.7 ± 1.4	–
x1 = 0.3984	–	866.86 ± 0.35	–	1170.5 ± 1.4
x1 = 0.5044	–	892.29 ± 0.37	–	1182.9 ± 1.4
x1 = 0.5062	908.95 ± 0.37	–	1241.8 ± 1.5	–
x1 = 0.6042	–	917.95 ± 0.39	–	1196.4 ± 1.5
x1 = 0.6065	935.18 ± 0.4	–	1258.1 ± 1.5	–
x1 = 0.6962	–	943.18 ± 0.42	–	1211.4 ± 1.5
x1 = 0.6977	960.69 ± 0.42	–	1274.3 ± 1.6	–
x1 = 0.7995	991.23 ± 0.46	–	1295.4 ± 1.6	–
x1 = 0.8009	–	974.09 ± 0.45	–	1230.6 ± 1.6
x1 = 0.8928	–	1003.34 ± 0.49	–	1249.5 ± 1.6
x1 = 0.8957	1022.45 ± 0.5	–	1316.5 ± 1.6	–
x1 = 0.9439	–	1020.41 ± 0.51	–	1260.2 ± 1.6
x1 = 0.9451	1039.33 ± 0.52	–	1327.6 ± 1.7	–

C1COCCO1 [1,4-dioxane]
[1]
Settings	mass density [kg/m3]	speed of sound [m/s]
298.15 K	1027.96 ± 0.18	1344.8 ± 1.4
313.15 K	1010.8 ± 0.15	1279.8 ± 1.3

CC(C)CO [2-methyl-1-propanol] + C1COCCO1
[2]
Settings	mass density, 298.15 K [kg/m3]	mass density, 313.15 K [kg/m3]	speed of sound, 298.15 K [m/s]	speed of sound, 313.15 K [m/s]
x2 = 0.0559	809.27 ± 0.29	–	1196.2 ± 1.3	–
x2 = 0.0612	–	798.12 ± 0.29	–	1146 ± 1.3
x2 = 0.0898	–	803.92 ± 0.29	–	1149.5 ± 1.3
x2 = 0.0943	817.3 ± 0.28	–	1201.4 ± 1.3	–
x2 = 0.1946	–	825.35 ± 0.27	–	1162.3 ± 1.3
x2 = 0.1959	838.82 ± 0.26	–	1215.5 ± 1.3	–
x2 = 0.2981	860.89 ± 0.24	–	1229.7 ± 1.3	–
x2 = 0.3039	–	848.25 ± 0.24	–	1176.2 ± 1.3
x2 = 0.4033	–	869.73 ± 0.22	–	1189.2 ± 1.3
x2 = 0.4039	884.22 ± 0.22	–	1245.1 ± 1.3	–
x2 = 0.5062	907.2 ± 0.19	–	1260.6 ± 1.3	–
x2 = 0.5086	–	892.99 ± 0.2	–	1203.6 ± 1.3
x2 = 0.5674	–	906.3 ± 0.19	–	1211.8 ± 1.3
x2 = 0.603	929.49 ± 0.17	–	1276.1 ± 1.3	–
x2 = 0.7018	–	937.3 ± 0.15	–	1232 ± 1.3
x2 = 0.7021	952.9 ± 0.15	–	1292.4 ± 1.3	–
x2 = 0.7966	976 ± 0.12	–	1308.7 ± 1.3	–
x2 = 0.8296	–	967.84 ± 0.12	–	1251.9 ± 1.3
x2 = 0.8879	–	982.25 ± 0.11	–	1261 ± 1.3
x2 = 0.8943	1000.57 ± 0.1	–	1326 ± 1.3	–
x2 = 0.9298	–	992.74 ± 0.1	–	1267.7 ± 1.3
x2 = 0.9328	1010.53 ± 0.1	–	1333 ± 1.4	–
